Measurements taken from US20190053492A1, “SUBSTITUTED PYRIDINE COMPOUNDS AS PESTICIDES” (Bayer CropScience Aktiengesellschaft, priority 2016, published 2019).

How the values were obtained:
[1] = system: Phaedon cochleariae; test: Phaedon cochleariae spray test; assay type: in vivo; settings: after 7 days, Chinese cabbage leaf discs
Method in brief: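 Chinese cabbage leaf discs sprayed with compound in acetone/DMF and emulsifier-containing water, then infested with mustard beetle larvae once dry. Efficacy in % scored after 7 days (100% = all larvae killed, 0% = none).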

[2] = system: Ctenocephalides felis; test: Ctenocephalides felis oral test; assay type: in vivo; settings: application rate 100 ppm in citrated cattle blood, after 2 days, adult cat fleas
Description: Ctenocephalides felis—Oral Test Solvent: dimethyl sulphoxide To produce a suitable active ingredient formulation, 10 mg of active ingredient are mixed with 0.5 ml of dimethyl sulphoxide. Dilution with citrated cattle blood gives the desired concentration. About 20 unfed adult cat fleas (Ctenocephalides felis) are placed into a chamber which is closed at the top and bottom with gauze. A metal cylinder whose bottom end is closed with parafilm is placed onto the chamber. The cylinder contains the blood/active ingredient formulation, which can be imbibed by the fleas through the parafilm membrane. After 2 days, the kill in % is determined. 100% means that all of the fleas have been killed; 0% means that none of the fleas have been killed.

[3] = system: Spodoptera frugiperda; test: Spodoptera frugiperda spray test; assay type: in vivo; settings: after 7 days, maize leaf discs
Method in brief: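 Maize leaf discs were sprayed with compound formulated in acetone/DMF and emulsifier-containing water, dried, then infested with Spodoptera frugiperda caterpillars. Percent kill was scored after 7 days, from 100% (all dead) to 0% (none dead).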

[4] = log P by HPLC on reversed-phase column (C 18), EEC Directive 79/831 Annex V.A8; assay type: physicochemical; settings: 55° C.; for LOGP_NEUTRAL: log P, neutral range; for LOGP_HCOOH: log P (HCOOH)
Description: Temperature: 55° C. […] Called log P (HCOOH) in the table. […] Called log P (neutral) in the table.

[5] = system: Lucilia cuprina; test: Lucilia cuprina test; assay type: in vivo; settings: application rate 100 ppm, after 2 days, L1 larvae
Description: Lucilia cuprina Test Solvent: dimethyl sulphoxide To produce a suitable active ingredient formulation, 10 mg of active ingredient are mixed with 0.5 ml of dimethyl sulphoxide, and the concentrate is diluted with water to the desired concentration. About 20 L1 larvae of the Australian sheep blowfly (Lucilia cuprina) are transferred into a test vessel containing minced horsemeat and the active ingredient formulation of the desired concentration. After 2 days, the kill in % is determined. 100% means that all the larvae have been killed; 0% means that no larvae have been killed.

[6] = HPLC on reversed-phase column (C 18)
[7] = acidic range at pH 2.7, 0.1% aqueous formic acid and acetonitrile, HPLC on reversed-phase column (C 18)
[8] = acidic range pH 2.7, 0.1% aqueous formic acid and acetonitrile, reversed-phase column (C 18)

SMILES | LOGP_NEUTRAL [4, 6] | LOGP_HCOOH [4, 7] | LOGP_HCOOH [4, 8] | efficacy (beetle larvae killed) ([1]; application rate 100 g/ha) [%] | efficacy (beetle larvae killed) ([1]; application rate 500 g/ha) [%] | efficacy (kill in %) [2] [%] | efficacy (caterpillars killed) ([3]; application rate 100 g/ha) [%] | efficacy (caterpillars killed) ([3]; application rate 500 g/ha) [%] | efficacy (kill in %) [5] [%]
N#Cc1ccc(CNC(=O)c2cc(-c3ccc(S(=O)(=O)C(F)(F)F)cc3)cc(NC(=O)C3CC3)n2)cc1 [Example I-096] | 3.47 | – | – | 100 | 100 | 100 | 100 | 100 | 100
N#Cc1cc(F)c(CNC(=O)c2cc(-c3ccc(OC(F)(F)F)cc3)cc(NC(=O)C3CC3)n2)c(F)c1 [Example I-082] | 4.01 | – | 4.12 | 100 | 100 | 100 | 100 | 100 | 100
CC(C)C(=O)Nc1cc(-c2ccc(C(F)(F)F)cc2)cc(C(=O)NCc2ccc(C#N)cc2)n1 [Example I-015] | 3.85 | – | 3.91 | 83 | 100 | 98 | 100 | 100 | 100
O=C(NC1CC1)c1cc(-c2ccc(OC(F)F)cc2)cc(NC(=O)C2CC2)n1 [Example I-030] | 2.83 | – | 2.94 | 100 | 100 | 100 | 83 | 100 | 90
CC(C)C(=O)Nc1cc(-c2ccc(OC(F)(F)F)cc2)cc(C(=O)NCc2ccc(C#N)cc2F)n1 [Example I-081] | 4.09 | – | 4.22 | 83 | 100 | 100 | 100 | 100 | 100
CN(Cc1ccc(C#N)cc1)C(=O)c1cc(-c2ccc(C(F)(F)F)cc2)cc(NC(=O)C2CC2)n1 [Example I-043] | 3.58 | – | 3.67 | – | 100 | 100 | – | 100 | 100
Cc1cc(-c2cc(NC(=O)C3CC3)nc(C(=O)NCc3ccc(C#N)cc3)c2)ccc1OC(F)(F)F [Example I-098] | 4.11 | – | 4.21 | 100 | 100 | 100 | 100 | 100 | 100
N#Cc1ccc(CNC(=O)c2cc(-c3ccc(Br)cc3)cc(NC(=O)C3CC3)n2)cc1 [Example I-053] | 3.61 | – | 3.73 | – | 100 | 95 | – | 100 | 100
O=C(NCc1ccc(C(F)(F)F)cc1)c1cc(-c2ccc(C(F)(F)F)cc2)cc(NC(=O)C2CC2)n1 [Example I-027] | 4.50 | – | 4.62 | 100 | 100 | 100 | 100 | 100 | 90
N#Cc1ccc(CNC(=O)c2cc(-c3ccc(SC(F)(F)F)cc3)cc(NC(=O)C3CC3)n2)cc1 [Example I-052] | 4.01 | – | 4.19 | 100 | 100 | 100 | 100 | 100 | 100
CC(C)(C#N)NC(=O)c1cc(-c2ccc(OC(F)(F)F)cc2)cc(NC(=O)C2CC2)n1 [Example I-108] | 3.64 | – | 3.77 | – | 83 | 100 | 100 | 83 | 90
O=C(NCc1ccc(-c2ncon2)cc1)c1cc(-c2ccc(SC(F)(F)F)cc2)cc(NC(=O)C2CC2)n1 [Example I-093] | 4.15 | – | 4.28 | 100 | 100 | 95 | – | 100 | 100

Continued, in another order:

LOGP_NEUTRAL [4, 6] | LOGP_HCOOH [4, 7] | LOGP_HCOOH [4, 8] | SMILES | efficacy (beetle larvae killed) ([1]; application rate 100 g/ha) [%] | efficacy (beetle larvae killed) ([1]; application rate 500 g/ha) [%] | efficacy (kill in %) [2] [%] | efficacy (caterpillars killed) ([3]; application rate 100 g/ha) [%] | efficacy (caterpillars killed) ([3]; application rate 500 g/ha) [%] | efficacy (kill in %) [5] [%]
– | 3.84 | – | O=C(NCC1CC1)c1cc(-c2ccc(OC(F)(F)F)cc2)cc(NC(=O)C2CC2)n1 [Example I-141] | 100 | 100 | 100 | 83 | 100 | 100
– | 4.09 | – | N#Cc1ccc(CNC(=O)c2cc(-c3ccc(OC(F)(F)Cl)cc3)cc(NC(=O)C3CC3)n2)cc1 [Example I-190] | 100 | 100 | 100 | 100 | 100 | 100
– | 4.28 | – | CC(NC(=O)c1cc(-c2ccc(OC(F)(F)F)cc2)cc(NC(=O)C2CC2)n1)c1ccc([N+](=O)[O-])cc1 (stereo not shown) [Example I-228] | – | 100 | 100 | 83 | 100 | 100
3.65 | 3.74 | – | N#Cc1ccc(CNC(=O)c2cc(-c3ccc(S(=O)(=O)C(F)(F)F)cc3)cc(NC(=O)C3CC3)n2)cc1F [Example I-120] | 100 | 100 | 100 | 100 | 100 | 100
4.06 | 4.18 | – | CCCCNC(=O)c1cc(-c2ccc(OC(F)(F)F)cc2)cc(NC(=O)C2CC2)n1 [Example I-113] | – | 100 | 100 | 83 | 100 | 100
3.83 | – | – | O=C(NCCC(F)(F)F)c1cc(-c2ccc(OC(F)(F)F)cc2)cc(NC(=O)C2CC2)n1 [Example I-176] | 100 | 100 | 100 | 100 | 100 | 100
3.78 | 3.87 | – | N#Cc1ccc(CNC(=O)c2cc(-c3ccc(OC(F)(F)F)cc3F)cc(NC(=O)C3CC3)n2)cc1 [Example I-124] | 100 | 100 | 100 | 100 | 100 | 100
